In US20140248227A1, “DEODORIZING COMPOSITIONS” (Henkel AG & Co. KGaA, priority 2011, published 2014):

Test: odor evaluation of filter papers treated with active agent and artificial perspiration mixture by six trained testers
Conditions: 0.5-wt % solution in ethanol on filter paper; 24 hours at room temperature; scale 0 (no difference from ethanol control) to 4 (very much better odor reduction)
Description: An artificial perspiration mixture was produced by mixing different short-chain fatty acids at specific quantitative ratios (C6, C8, C9, C10, isovaleric acid). respective 0.5-wt % solutions in ethanol were produced of each of the active agents and active-agent combinations to be tested, applied in a standardized quantity onto filter paper, and dried for one hour at room temperature. The artificial perspiration mixture was then applied in a standardized quantity, and the filters were stored for 24 hours at room temperature in a closed container. An odor evaluation of the samples was carried out by six trained testers using a scale from 0 (no difference from ethanol control) to 4 (very much better odor reduction as compared with ethanol control).

| Compound | reduction in perspiration odor as compared with the ethanol control |
| --- | --- |
| CC(C)[C@@H]1CC[C@@H](C)C[C@H]1O (racemic) [DL-Menthol, DL-menthol] | 1.67 units |
| C/C=C\c1ccc(OC)cc1 [anethole] | 2.42 units |
| CC12CCC(CC1)C(C)(C)O2 [eucalyptol, 1,3,3-trimethyl-2-oxabicyclo[2.2.2]octane] | 0.92 units |
